Where a name gives a salt, the structure may show the parent alone. Read-outs that look alike come from different tables or passages of the source.

Results on ten compounds are retold here after patent publication US9963448B2, “Bicyclic inhibitors of PAD4” (Padlock Therapeutics, Inc., priority 2015, dated 2018).

One assay deals with hPAD4 (Homo sapiens, UniProt Q9UM07). Kind of assay: hPAD4 RFMS (RapidFire mass spectrometry) PAD4 inhibition assay.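 On hPAD4 RFMS pIC50: grade E means pIC50 at most 4 and F means pIC50 4.0 to 5.0.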 It counts as biochemical. The following applies: hPAD4 enzyme, RFMS readout. Here is the method: (§1) Compounds of the present invention were assayed as inhibitors of PAD4 using the assay protocol described below.
Sequence of hPAD4 (Q9UM07 whole entry): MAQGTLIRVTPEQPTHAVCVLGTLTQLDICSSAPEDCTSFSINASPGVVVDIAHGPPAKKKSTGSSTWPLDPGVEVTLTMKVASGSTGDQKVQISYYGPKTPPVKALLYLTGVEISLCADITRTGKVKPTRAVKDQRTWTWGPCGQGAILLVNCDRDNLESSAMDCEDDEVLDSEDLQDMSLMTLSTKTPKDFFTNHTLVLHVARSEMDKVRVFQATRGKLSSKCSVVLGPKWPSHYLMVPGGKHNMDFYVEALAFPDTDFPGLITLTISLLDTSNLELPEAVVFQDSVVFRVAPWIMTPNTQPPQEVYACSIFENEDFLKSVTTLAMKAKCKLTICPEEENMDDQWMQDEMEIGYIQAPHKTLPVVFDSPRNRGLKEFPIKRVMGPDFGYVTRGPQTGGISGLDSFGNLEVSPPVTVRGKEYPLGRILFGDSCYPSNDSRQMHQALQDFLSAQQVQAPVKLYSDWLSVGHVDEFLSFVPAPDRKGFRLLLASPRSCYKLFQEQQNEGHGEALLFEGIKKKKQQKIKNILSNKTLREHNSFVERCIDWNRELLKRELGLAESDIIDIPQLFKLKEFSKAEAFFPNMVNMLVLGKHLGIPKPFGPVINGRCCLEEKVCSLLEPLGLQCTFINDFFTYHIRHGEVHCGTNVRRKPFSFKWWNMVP
(§2) Compound stock solutions were stored at RT. […] Final assay conditions were as follows:
(§3) Total incubation time: 65 mins at 37° C.
(§4) Stop solution: 40 μl 5% TCA in ACN
(§5) The compound numbers correspond to the compound numbers in Table 1. […] The term pIC50=−log(IC50). […] “NA” stands for “not assayed.”

Another assay deals with mPAD4 (Mus musculus, UniProt Q9Z183). Kind of assay: mPAD4 RFMS PAD4 inhibition assay.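 On mPAD4 RFMS pIC50: grade E means pIC50 at most 4 and F means pIC50 4.0 to 5.0.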 Format: biochemical. The following applies: mPAD4, RFMS readout. Here is the method: as §1, §2, §3, §4, §5
Sequence of mPAD4 (Q9Z183 whole entry): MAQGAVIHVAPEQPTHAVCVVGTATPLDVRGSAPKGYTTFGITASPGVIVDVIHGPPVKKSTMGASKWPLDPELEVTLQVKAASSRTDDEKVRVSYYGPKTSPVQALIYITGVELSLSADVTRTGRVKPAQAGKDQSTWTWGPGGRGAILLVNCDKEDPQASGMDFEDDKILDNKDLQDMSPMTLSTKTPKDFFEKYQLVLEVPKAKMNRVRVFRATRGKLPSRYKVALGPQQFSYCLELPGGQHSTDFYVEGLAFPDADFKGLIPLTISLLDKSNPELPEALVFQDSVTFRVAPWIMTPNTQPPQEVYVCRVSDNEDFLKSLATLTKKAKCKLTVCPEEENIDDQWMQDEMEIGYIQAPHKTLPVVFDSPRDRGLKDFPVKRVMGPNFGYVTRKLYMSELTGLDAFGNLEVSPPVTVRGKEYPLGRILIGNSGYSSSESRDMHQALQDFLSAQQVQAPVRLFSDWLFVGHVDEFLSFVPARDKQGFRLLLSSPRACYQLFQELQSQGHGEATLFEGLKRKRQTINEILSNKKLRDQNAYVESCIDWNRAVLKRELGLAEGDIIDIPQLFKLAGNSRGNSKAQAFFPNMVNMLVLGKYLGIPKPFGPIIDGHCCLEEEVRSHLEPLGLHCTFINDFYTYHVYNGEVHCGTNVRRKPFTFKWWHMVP
Setting [1] is: pIC50=−log(IC50), read-out: hPAD4 RFMS pIC50 (converted).
Where [2] appears, read: pIC50=−log(IC50), read-out: mPAD4 RFMS pIC50 (converted).

`CN[C@@H]1C[C@@H](O)CN(C(=O)c2cc(OC)c3c(c2)nc(-c2cc4cccnc4n2CC2CC2)n3C)C1` (racemic) [Compound I-77, Rel-(3R,5R)-1-{2-[1-(cyclopropylmethyl)-1H-pyrrolo[2,3-b]pyridin-2-yl]-7-methoxy-1-methyl-1H-1,3-benzodiazole-5-carbonyl}-5-(methylamino)piperidin-3-ol hydrochloride]: the IC50 on hPAD4 (setting [1]) is 10 to 100 µM; on hPAD4 (read-out: hPAD4 RFMS IC50), greater than 10 µM; at mPAD4 (setting [2]), 10 to 100 µM; on mPAD4 (read-out: mPAD4 RFMS IC50) it was greater than 10 µM.

In the case of `COc1cc(C(=O)N2C[C@@H](N)C[C@H](O)C2)cc2nc(-c3cc4cccnc4n3CC3CC3)n(C)c12` (racemic) [Compound I-80], the IC50 at hPAD4 (setting [1]) was 1 to 10 µM; at hPAD4 (read-out: hPAD4 RFMS IC50) it was 5 to 10 µM; on mPAD4 (setting [2]) it was 1 to 10 µM; on mPAD4 (read-out: mPAD4 RFMS IC50), 1 to 5 µM.

`COc1cc(C(=O)N2CC(N)CC(C#N)C2)cc2nc(-c3cc4cccnc4n3CC3CC3)n(C)c12` (racemic) [Compound I-82, 5-Amino-1-{2-[1-(cyclopropylmethyl)-1H-pyrrolo[2,3-b]pyridin-2-yl]-7-methoxy-1-methyl-1H-1,3-benzodiazole-5-carbonyl}piperidine-3-carbonitrile]: the IC50 at hPAD4 (setting [1]) is 10 to 100 µM; on hPAD4 (read-out: hPAD4 RFMS IC50) it was greater than 10 µM; on mPAD4 (setting [2]), 10 to 100 µM; at mPAD4 (read-out: mPAD4 RFMS IC50), greater than 10 µM.

As for `COc1cc(C(=O)N2CCC3OCCNC3C2)cc2nc(-c3cc4cccnc4n3CC3CC3)n(C)c12` (racemic) [Compound I-83], the IC50 on hPAD4 (setting [1]) was 1 to 10 µM; at hPAD4 (read-out: hPAD4 RFMS IC50), 1 to 5 µM; on mPAD4 (setting [2]) it was 1 to 10 µM; on mPAD4 (read-out: mPAD4 RFMS IC50) it was 1 to 5 µM.

Take `COc1cc(C(=O)N2CCC(OC(F)F)C(N)C2)cc2nc(-c3cc4cccnc4n3CC3CC3)n(C)c12` (racemic) [Compound I-86, rac-(3R,4S)-1-{2-[1-(cyclopropylmethyl)-1H-pyrrolo[2,3-b]pyridin-2-yl]-7-methoxy-1-methyl-1H-1,3-benzodiazole-5-carbonyl}-4-(difluoromethoxy)piperidin-3-amine]: the IC50 at hPAD4 (setting [1]), at hPAD4 (read-out: hPAD4 RFMS IC50), on mPAD4 (setting [2]) and at mPAD4 (read-out: mPAD4 RFMS IC50) was less than 1 µM in each case.

Turning to `COc1cc(C(=O)N2CC3COCC3(CN)C2)cc2nc(-c3cc4cccnc4n3CC3CC3)n(C)c12` (racemic) [Compound I-96], the IC50 at hPAD4 (setting [1]) was 10 to 100 µM; at hPAD4 (read-out: hPAD4 RFMS IC50), greater than 10 µM; on mPAD4 (setting [2]), 10 to 100 µM; at mPAD4 (read-out: mPAD4 RFMS IC50), greater than 10 µM.

Consider `COc1cc(C(=O)N2CCC3(CNCCC3(F)F)C2)cc2nc(-c3cc4cccnc4n3CC3CC3)n(C)c12` (racemic) [Compound I-97], for which the IC50 on hPAD4 (setting [1]) is 10 to 100 µM; at hPAD4 (read-out: hPAD4 RFMS IC50), greater than 10 µM; on mPAD4 (setting [2]), 10 to 100 µM; on mPAD4 (read-out: mPAD4 RFMS IC50) it was greater than 10 µM.

With `COc1cc(C(=O)N2CC3CC(N)C2C3)cc2nc(-c3cc4cccnc4n3CC3CC3)n(C)c12` (racemic) [Compound I-99], the IC50 on hPAD4 (setting [1]) is greater than 100 µM; on hPAD4 (read-out: hPAD4 RFMS IC50), greater than 10 µM; on mPAD4 (setting [2]), greater than 100 µM; at mPAD4 (read-out: mPAD4 RFMS IC50), greater than 10 µM.

For `CCn1c(-c2nc3cc(C(=O)N4CC5CCC4C5N)cc(OC)c3n2C)cc2ccc(OC)nc21` (racemic) [Compound I-136], the IC50 on hPAD4 (setting [1]), at hPAD4 (read-out: hPAD4 RFMS IC50), at mPAD4 (setting [2]) and at mPAD4 (read-out: mPAD4 RFMS IC50) was less than 1 µM each time.

For `CCn1c(-c2nc3cc(C(=O)N4C[C@H]5CC[C@@H]4[C@@H]5N)cc(OC)c3n2C)cc2cccnc21` (racemic) [Compound I-143], the IC50 on hPAD4 (setting [1]), on hPAD4 (read-out: hPAD4 RFMS IC50), on mPAD4 (setting [2]) and on mPAD4 (read-out: mPAD4 RFMS IC50) was less than 1 µM in each case.
